{
  "source": "patent US5008247A",
  "about": "“Polysulfuric acid esters of bis-aldonamides and their derivatives, process for their preparation and medicaments” (Luitpold-Werk Chemisch-pharmazeutische Fabrik GmbH & Co., priority 1987, dated 1991)",
  "key": {"[1]": {"system": "blood clotting (activated clotting system)", "test": "Clotting test, activated partial thromboplastin time (aPTT)", "format": "biochemical", "details": "prolongation of 150% of the blank value as reference point; converted by heparin calibration curve", "procedure": "The inhibition of blood clotting can be measured in a simple manner by means of the activated partial thromboplastin time aPTT. It gives information about the general inhibition of the activated clotting system. In order to decrease the incidence of hemorrhages, as low as possible an inhibition of blood clotting is desired.\nClotting test, aPTT 0.1 ml of plasma and 0.1 ml of Pathromtin^R (Behringwerke, Marburg) are incubated at 37° C. for 2 minutes and 0.1 ml of 25 mM CaCl2 solution is added. The clotting time is measured in a Schnitger & Gross coagulometer. The agent is made up for 5 individual determinations per concentration.\nThe prlongation of the clotting time is converted into heparin units by means of a calibration curve."}, "[2]": {"system": "radical formation by leucocytes", "test": "Test on anti-inflammatory action: inhibition of luminol-potentiated chemiluminescence in whole blood", "format": "cell-based, rabbit", "details": "Oryctolagus cuniculus, Leucocyte, 1.5 h, read-out: IC50 (50% inhibition of luminol-potentiated chemiluminescence)"}, "[3]": {"system": "fibrinolysis (plasminogen-containing fibrin plates, human standard plasma)", "test": "Fibrinolysis test (lysis haloes on plasminogen-containing fibrin plates)", "format": "biochemical", "details": "area of lysis haloes less lysis area without substance, 24 hours at 37° C.", "text": "The formation of a clinically manifest (relatively large) thrombus can be prevented in various ways. For one, the factors which are involved in the formation of the primary thrombus, such as blood platelet aggregation or the blood clotting system, can be eliminated. On the other hand, the dissolution of the primary thrombus can be accelerated by potentiating endogeneous fibrinolysis. A potentiation of endogeneous fibrinolysis can also serve to dissolve already clinically manifest thrombi again. The fibrinolytic action of a substance is thus of great significance in the prophylaxis and therapy of thrombosis. The fibrinolytic action of the substances according to the invention was determined in the test below.\nFibrinolysis was determined by means of plasminogen-containing fibrin plates.\nPetri dishes, dia. 9 cm, were prewarmed to 40° C. 3 ml of a 2% solution of fibrinogen (Behringwerke, Marburg) in water, 1 ml of a plasminogen solution, 2 CTA/ ml (Behringwerke, Marburg), 3 ml of a 1% agarose solution (Serva, Heidelberg) in 50 mM TRIS/HCl, pH 7.8 and 1 ml of a solution of 15 U/ml of thrombin (Behringwerke, Marburg) in water were pipetted into the dishes with swirling. After cooling the plates, wells of 5 mm diameter were punched out.\n0.1 ml of plasma (human standard plasma, Behringwerke, Marburg), 0.8 ml of water and 0.1 ml of solution of the test substance in various concentrations were incubated for 10 minutes at 37° C. […] The precipitate was taken up in 0.1 ml of buffer (20 mM TRIS/HCl, 100 mM NaCl, 2.7 mM EDTA, pH 7.8).\nAfter 24 hours at 37° C., the lysis haloes were planimetered. The areas of the lysis haloes less the lysis areas without addition of substance serve as a measure for the fibrinolysis-increasing activity."}, "[4]": {"system": "bleeding time", "test": "Influence on the bleeding time (rat tail)", "format": "in vivo", "details": "rats, 5 minutes before bleeding, compared to control", "procedure": "A piece of tail about 2 mm long was cut from rats. The time until bleeding had stopped was measured. The test substance in various concentrations or physiological saline solution (control) was administered to the animals 5 minutes before causing the bleeding. Groups of 20 animals were treated. The proiongalion of the bleeding time compared to the control was expressed in percent."}, "[5]": {"system": "blood clotting (activated clotting system)", "details": "standard heparin from the firm Pharmindustrie; cited from earlier work"}},
  "note": "Like-named read-outs stand apart in the source and are kept apart here.",
  "data": [
    {"compound": "O=C(NCCCCCCCCCCCCNC(=O)[C@H](OS(=O)(=O)O)[C@@H](OS(=O)(=O)O)[C@H](O[C@@H]1O[C@H](COS(=O)(=O)O)[C@H](OS(=O)(=O)O)[C@H](OS(=O)(=O)O)[C@H]1OS(=O)(=O)O)[C@@H](COS(=O)(=O)O)OS(=O)(=O)O)[C@H](OS(=O)(=O)O)[C@@H](OS(=O)(=O)O)[C@H](O[C@@H]1O[C@H](COS(=O)(=O)O)[C@H](OS(=O)(=O)O)[C@H](OS(=O)(=O)O)[C@H]1OS(=O)(=O)O)[C@@H](COS(=O)(=O)O)OS(=O)(=O)O.[Na].[Na].[Na].[Na].[Na].[Na].[Na].[Na].[Na].[Na].[Na].[Na].[Na].[Na].[Na].[Na]", "note": "[Example 25, Hexadecasodium N,N'-1,12-dodecanediylbis-[2,3,5,6-tetra-O-sulfo-4-O-(2,3,4,6-tetra-O-sulfo-β-D-galactopyranosyl)-D-gluconamide]]", "values": [
      {"measurement": "heparin units (inhibition of blood clotting, aPTT)", "setting": "[1]", "result": 5.85, "unit": "u/mg"},
      {"measurement": "IC50", "setting": "[2]", "result": 155, "unit": "µg/mL"}
    ]},
    {"compound": "O=C(NCCCNC(=O)[C@H](OS(=O)(=O)O)[C@@H](OS(=O)(=O)O)[C@H](O[C@@H]1O[C@H](COS(=O)(=O)O)[C@H](OS(=O)(=O)O)[C@H](OS(=O)(=O)O)[C@H]1OS(=O)(=O)O)[C@@H](COS(=O)(=O)O)OS(=O)(=O)O)[C@H](OS(=O)(=O)O)[C@@H](OS(=O)(=O)O)[C@H](O[C@@H]1O[C@H](COS(=O)(=O)O)[C@H](OS(=O)(=O)O)[C@H](OS(=O)(=O)O)[C@H]1OS(=O)(=O)O)[C@@H](COS(=O)(=O)O)OS(=O)(=O)O.[Na].[Na].[Na].[Na].[Na].[Na].[Na].[Na].[Na].[Na].[Na].[Na].[Na].[Na].[Na].[Na]", "note": "[Example 20, Hexadecasodium N,N'-1,3-propanediylbis-[2,3,5,6-tetra-O-sulfo-4-O-(2,3,4,6-tetra-O-sulfo-β-D-galactopyranosyl)-D-gluconamide]]", "values": [
      {"measurement": "Fibrinolysis at 2 μg/ml", "setting": "[3]", "result": 19.2, "unit": "mm^2"},
      {"measurement": "heparin units (inhibition of blood clotting, aPTT)", "setting": "[1]", "result": 42.1, "unit": "u/mg"},
      {"measurement": "Lengthening of the bleeding time", "setting": "[4]; Dose 0.5 mg/kg", "result": 5.1, "unit": "%"},
      {"measurement": "Lengthening of the bleeding time", "setting": "[4]; Dose 2 mg/kg", "result": 35.1, "unit": "%"},
      {"measurement": "IC50", "setting": "[2]", "result": 540, "unit": "µg/mL"}
    ]},
    {"compound": "Heparin [reference compound]", "values": [
      {"measurement": "Fibrinolysis at 2 μg/ml", "setting": "[3]", "result": 14.8, "unit": "mm^2"},
      {"measurement": "heparin units (inhibition of blood clotting, aPTT)", "setting": "[1]", "result": 175, "unit": "u/mg"},
      {"measurement": "Lengthening of the bleeding time", "setting": "[4]; Dose 0.25 mg/kg", "result": 55.4, "unit": "%"},
      {"measurement": "Lengthening of the bleeding time", "setting": "[4]; Dose 0.5 mg/kg", "result": 120, "unit": "%"},
      {"measurement": "heparin activity of the standard", "setting": "[5]", "result": 175, "unit": "U/mg"}
    ]},
    {"compound": "O=C(NCCCOCCCCOCCCNC(=O)[C@H](OS(=O)(=O)O)[C@@H](OS(=O)(=O)O)[C@H](O[C@@H]1O[C@H](COS(=O)(=O)O)[C@H](OS(=O)(=O)O)[C@H](OS(=O)(=O)O)[C@H]1OS(=O)(=O)O)[C@@H](COS(=O)(=O)O)OS(=O)(=O)O)[C@H](OS(=O)(=O)O)[C@@H](OS(=O)(=O)O)[C@H](O[C@@H]1O[C@H](COS(=O)(=O)O)[C@H](OS(=O)(=O)O)[C@H](OS(=O)(=O)O)[C@H]1OS(=O)(=O)O)[C@@H](COS(=O)(=O)O)OS(=O)(=O)O", "note": "[Example 34, Hexadecasodium N,N'-1,12-(4,9-dioxadodecanediylbis)[2,3,5,6-tetra-O-sulfo-4-O-(2,3,4,6-tetra-O-sulfo-β-D-galactopyranosyl)-D-gluconamide]]", "values": [
      {"measurement": "heparin units (inhibition of blood clotting, aPTT)", "setting": "[1]", "result": 15.1, "unit": "u/mg"}
    ]},
    {"compound": "O=C(NCCCCCCCCCNC(=O)[C@H](OS(=O)(=O)O)[C@@H](OS(=O)(=O)O)[C@H](O[C@@H]1O[C@H](COS(=O)(=O)O)[C@H](OS(=O)(=O)O)[C@H](OS(=O)(=O)O)[C@H]1OS(=O)(=O)O)[C@@H](COS(=O)(=O)O)OS(=O)(=O)O)[C@H](OS(=O)(=O)O)[C@@H](OS(=O)(=O)O)[C@H](O[C@@H]1O[C@H](COS(=O)(=O)O)[C@H](OS(=O)(=O)O)[C@H](OS(=O)(=O)O)[C@H]1OS(=O)(=O)O)[C@@H](COS(=O)(=O)O)OS(=O)(=O)O.[Na].[Na].[Na].[Na].[Na].[Na].[Na].[Na].[Na].[Na].[Na].[Na].[Na].[Na].[Na].[Na]", "note": "[Example 24, Hexadecasodium N,N'-1,9-nonanediylbis-[2,3,5,6-tetra-O-sulfo-4-O-(2,3,4,6-tetra-O-sulfo-β-D-galactopyranosyl)-D-gluconamide]]", "values": [
      {"measurement": "Fibrinolysis at 2 μg/ml", "setting": "[3]", "result": 17.8, "unit": "mm^2"},
      {"measurement": "heparin units (inhibition of blood clotting, aPTT)", "setting": "[1]", "result": 14.1, "unit": "u/mg"},
      {"measurement": "IC50", "setting": "[2]", "result": 220, "unit": "µg/mL"}
    ]},
    {"compound": "O=C(NC1CCC(CC2CCC(NC(=O)[C@H](OS(=O)(=O)O)[C@@H](OS(=O)(=O)O)[C@H](O[C@@H]3O[C@H](COS(=O)(=O)O)[C@H](OS(=O)(=O)O)[C@H](OS(=O)(=O)O)[C@H]3OS(=O)(=O)O)[C@@H](COS(=O)(=O)O)OS(=O)(=O)O)CC2)CC1)[C@H](OS(=O)(=O)O)[C@@H](OS(=O)(=O)O)[C@H](O[C@@H]1O[C@H](COS(=O)(=O)O)[C@H](OS(=O)(=O)O)[C@H](OS(=O)(=O)O)[C@H]1OS(=O)(=O)O)[C@@H](COS(=O)(=O)O)OS(=O)(=O)O", "note": "(stereo partly drawn) [Example 31, Hexadecasodium N,N'-4,4-dicylcohexylmethanediylbis-[2,3,5,6-tetra-O-sulfo-4-O-(2,3,4,6-tetra-O-sulfo-β-D-galactopyranosyl)-D-gluconamide]]", "values": [
      {"measurement": "heparin units (inhibition of blood clotting, aPTT)", "setting": "[1]", "result": 10.2, "unit": "u/mg"}
    ]},
    {"compound": "COc1ccc2c(c1)c(CC(=O)O)c(C)n2C(=O)c1ccc(Cl)cc1", "note": "[Indomethacin, reference compound]", "values": [
      {"measurement": "IC50", "setting": "[2]; zymosan-stimulated citrated rabbit blood, maximum chemiluminescence over 90 minutes", "result": 240, "unit": "µg/mL"}
    ]},
    {"compound": "O=C(NCCCCCCNC(=O)[C@H](OS(=O)(=O)O)[C@@H](OS(=O)(=O)O)[C@H](O[C@@H]1O[C@H](COS(=O)(=O)O)[C@H](OS(=O)(=O)O)[C@H](OS(=O)(=O)O)[C@H]1OS(=O)(=O)O)[C@@H](COS(=O)(=O)O)OS(=O)(=O)O)[C@H](OS(=O)(=O)O)[C@@H](OS(=O)(=O)O)[C@H](O[C@@H]1O[C@H](COS(=O)(=O)O)[C@H](OS(=O)(=O)O)[C@H](OS(=O)(=O)O)[C@H]1OS(=O)(=O)O)[C@@H](COS(=O)(=O)O)OS(=O)(=O)O.[Na].[Na].[Na].[Na].[Na].[Na].[Na].[Na].[Na].[Na].[Na].[Na].[Na].[Na].[Na].[Na]", "note": "[Example 23, Hexadecasodium N,N'-1,6-hexanediylbis-[2,3,5,6-tetra-O-sulfo-4-O-(2,3,4,6-tetra-O-sulfo-β-D-galactopyranosyl)-D-gluconamide]]", "values": [
      {"measurement": "Fibrinolysis at 2 μg/ml", "setting": "[3]", "result": 21.6, "unit": "mm^2"},
      {"measurement": "heparin units (inhibition of blood clotting, aPTT)", "setting": "[1]", "result": 30.9, "unit": "u/mg"},
      {"measurement": "IC50", "setting": "[2]", "result": 225, "unit": "µg/mL"}
    ]}
  ]
}
